Where “and” joins values, the source holds several entries; their conditions need not be identical. Equal values may be shown once. Entries after “also recorded” stand apart in the source; their conditions may differ.
What was measured:
[1] = tested on: human EGFR; assay: Ligand binding assay with biotinylated peptide (NeutrAvidin-HRP/ABTS, 405 nm); conditions: for Relative binding: melanoma cells, 1 h at 37 °C, (OD x nM - OD 0 nM)/OD 0 nM at 405 nm, triplicates; for optimum concentration for binding to EGFR: concentrations tested 10, 50 and 500 nM
Method: An experiment was performed to test the ability of Sh-EGFl-1 peptide interaction with human receptor. Ligand binding assay, adapted from King et al. was performed with modifications using human cells. Both Sh-EGFl-1 and rhEGF were first conjugated with N-hydroxysuccinimidobiotin (NHS-biotin) and were added to human cells. Any binding of peptide to EGFR was detected through the reaction of NeutrAvidin conjugated with horseradish peroxidase enzyme and 2,2′-azino-bis-3-ethylbenzothiazoline-6-sulfonic acid (ABTS) as substrate.
A short peptide sequence derived from the protein translation of Contig 498513, was submitted to order. The 4.9 kDa Sh-EGFl-1 peptide (H-NINECFSSPCENQGICQDEIDGYNCVCQPGFTGTHCESSMLNHVI-OH) was synthesized by Mimotopes Pty. Ltd., Australia through a Fmoc solid-phase peptide chemistry method. A master stock concentration of 1 mg/mL was prepared by diluting lyophilized peptide with PBS buffer pH 7.4. Recombinant human EGF (rhEGF) (H-MNSDSECPLSHDGYCLHDGVCMYIEALDKYACNCVVGYIGERCQYRDLKWWELR-OH) was purchased from Thermo Scientific. For the cell proliferation assay and morphology observation experiments, peptides were added fresh into the serum-free growth medium to concentrations of 10 nM and 50 nM. For the binding affinity assay experiment, biotinylation of Sh-EGFl-1 and rhEGF peptides with NHS–biotin (Sigma Aldrich, Burlington, MA, USA) was performed according to the manufacturer’s instructions. The diluted peptides in PBS pH 7.4 were changed into carbonate buffer 0.1 M carbonate buffer pH 9.5 (0.07 M sodium bicarbonate, 0.03 M sodium carbonate) for an optimal biotinylation environment. A 10 X volume of cold acetone was added to the peptides and vortexed for 15 s. The mixture was incubated for 30 min at −20 °C before being centrifuged at 16,100× g for 24 min at 4 °C. The supernatant was discarded and the pellet was air-dried and fully dissolved in carbonate buffer pH 9.5. A total of 20 mg/mL of NHS–biotin was prepared in 1 mL DMSO. A volume of 0.13 µL and 0.1 µL of NHS–biotin was added to the Sh-EGFl-1 and rhEGF peptides, respectively. Both reaction mixtures were vortexed for a while and incubated in a thermoblock with 400 rpm shaking speed for 4 h at room temperature. Any unattached biotin molecules were sieved out using a PD-10 desalting column containing Sephadex G-25 medium (GE Life Sciences, Chicago, IL, USA). PBS buffer pH 7.4 was used as eluent to collect the conjugated peptides out from the column. The concentration of the biotin-conjugated peptides was determined using a NanoDrop spectrophotometer (Thermo Scientific, Waltham, MA, USA) and BCA assay.
Melanoma cells were seeded at 90% confluency in a 96-well plate and cultured in a humidified incubator at 37 °C, equilibrated with 5% CO2 until the next day. When all cells were attached to the surface, the plate was placed on ice for a while to reduce the protein metabolism rate, so the cells were not easily detached. The medium was removed and cells were washed twice using 200 µL of cold PBS buffer. A volume of 100 µL cold formalin was added to the cells to enhance cell attachment to the surface. The plate was placed on ice for the first 5 min, then continued for another 15 min incubation at room temperature. Cells were washed twice using 200 µL of cold PBS. A total of 100 µL of melanoma growth medium (MEM basal medium and 3% FBS) was added and cells were incubated at 37 °C for 30 min. The medium was discarded and replaced with 100 µL of treatment medium (MEM basal medium supplemented with 0.1% BSA, 200 mM HEPES buffer and Sh-EGFl-1 and rhEGF at concentrations of 10, 50 and 500 nM respectively). Cells were incubated at 37 °C for 1 h. The medium was discarded, and cells were washed twice using 200 µL cold PBS and 0.3 M NaCl. A total of 100 µL horseradish peroxidase (HRP) conjugated with NeutrAvidin solution (Thermo Scientific, Waltham, MA, USA) was added with a concentration of 1:10,000 onto cells and incubated at 37 °C for 1 h. […]

[2] = tested on: human melanoma cells (CRL-1872); assay: Cell morphology observation; type: cell-based
Method: Human melanoma cells (CRL-1872) were purchased from ATCC, Rocksville, MD, USA. Cells were cultured in a complete growth medium, which consisted of Minimum Essential Medium (MEM) (Gibco, Waltham, MA, USA) supplemented with 10% fetal bovine serum (FBS) (Invitrogen, Waltham, MA, USA) and 1% antibiotic–antimycotic (Invitrogen, Waltham, MA, USA), in a humidified incubator at 37 °C, equilibrated with 5% CO2. Cells were subcultured every two days until reaching confluency in T25 flask (TPP, Trasadingen, Switzerland) before being seeded in designated plates for specific experiment objectives.
Cells were seeded at 80,000 cells per well in a 24-well plate containing 400 µL of complete growth medium. After 24 h of culture, the medium was removed, washed once with PBS, replaced with serum-free medium and left to culture for another 16 h. The medium was removed and replaced with corresponding treatment medium, each in triplicates; 10 nM and 50 nM of Sh-EGFl-1, 10 nM and 50 nM of rhEGF were used as a positive control and serum-free medium was used as a negative control. Cells were cultured in a single plate to track their growth every 24 h during the four days of experiment. […] A crossed line was made at the bottom of each well to mark the four cell-counting areas that were recorded daily using a microscope digital camera. Cells were counted manually based on the images visualized using ImageJ version 2.0.

[3] = 50 nM, recovery from serum starvation

Substance	Relative binding ([1]; 10 nM) [%]	Relative binding ([1]; 50 nM)	Relative binding ([1]; 500 nM)	optimum concentration for binding to EGFR [1] [nM]	cell morphology / attachment [2, 3]	cell morphology / attachment ([2]; 10 nM, recovery from serum starvation and after medium change at 48 h)
H-MNSDSECPLSHDGYCLHDGVCMYIEALDKYACNCVVGYIGERCQYRDLKWWELR-OH (disulfide) [rhEGF, Recombinant human EGF purchased from Thermo Scientific, reference compound]	12	4% and 3.62%	7.57%	10	better recovery as the cells were elongated when they attached to the flask surface	–
H-NINECFSSPCENQGICQDEIDGYNCVCQPGFTGTHCESSMLNHVI-OH (disulfide) [Sh-EGFl-1, 45 amino acid EGF-like peptide from Stichopus horrens contig 498513, synthesized by Fmoc solid-phase peptide chemistry]	5	-0.68%	~10% and 10%	500	better recovery as the cells were elongated when they attached to the flask surface	better recovery as the cells were elongated when they attached to the flask surface; also recorded: most of the cells to lose attachment from the flask except in the presence of 10 nM Sh-EGFl-1
